Patent US10010581B2, “Syndecan peptides and polypeptides and uses thereof” (Wisconsin Alumni Research Foundation, priority 2012, dated 2018)

What was measured:
Assay type in all cases: cell-based, human
[1] = system: SKBr3 cells; assay: total cell number, CellTiterGLO assay; conditions: 4 or 7 days
Procedure: (§1) FIGS. 11A-F. SSTN treatment of normal (nontransformed) epithelial cells versus carcinoma (transformed) cells. Cells are plated for one day, then treated with either 3-30 μM […] (SSTN-I), 3-30 μM […] (SSTN-E), 3-30 μM SSTNHER2 (SSTN-H) or combinations of the three peptides, each at 10 μM to test their additive effect. […] The treatment times are chosen to reflect only modest effects of the peptides used singly, so that the more pronounced effect of peptides used in combination can still be observed. Treatment for longer times leads to significant cell death observed even with single peptides alone. (FIG. 11A) HaCat human keratinocytes, an example of a normal stratified epithelium, (FIG. 11B) UM-SCC47 cells, a squamous cell carcinoma derived from the tongue of a patient (a stratrified epithelium), (FIG. 11C) SCC25 cells, another squamous cell carcinoma from the tongue of a patient (FIG. 11D) MCF10A cells, a normal human breast epithelium, (FIG. 11E) MDA-MB-468 cells, a triple-negative (TN) breast carcinoma, and (FIG. 11F) SKBr3 cells, a HER2+ human breast carcinoma. Note that the “triple-negative” designation of the MDA-MB-468 carcinoma means the cells are negative for progesterone receptor, estrogen receptor and the HER2 kinase. Thus, they would not be expected to rely on HER2. Indeed, these cells are not affected by SSTNHER2, either alone or when combined with the other peptides. […] Nonetheless, the other three carcinomas are inhibited by SSTNHER2, and this is enhanced when SSTNHER2 is combined with the other SSTN peptides, leading to obvious cell death (e.g., the number of cells at the end of the experiment are less than at the beginning).
(§2) Cells (5×10^4/well in a 24-well plate) were treated with activated TAT-peptide ([…]; (SEQ ID NO:18)), inactivated TAT-peptide ([…]; (SEQ ID NO:19)) or GST fusion protein (GST, GST-S1ED or GST-S4ED). Cells death was observed by trypan blue staining or Cell Tilter-GLO Cell Viability Assay (Promega).

[2] = system: MDA-MB-468 cells; assay: total cell number, CellTiterGLO assay; conditions: 4 or 7 days
Procedure: as §1, §2

[3] = system: MCF10A cells; assay: total cell number, CellTiterGLO assay; conditions: single peptide, concentrations as high as 30 μM, 4 or 7 days
Procedure: as §1, §2

[4] = system: SCC25 cells; assay: total cell number, CellTiterGLO assay; conditions: 4 or 7 days
Procedure: as §1, §2

[5] = system: UM-SCC47 cells; assay: total cell number, CellTiterGLO assay; conditions: 4 or 7 days
Procedure: as §1, §2

[6] = system: MCF10A mammary epithelial cells; assay: scratch wound haptotaxis induced by clustering the α6β4 integrin; conditions: α6β4 integrin clustered
Procedure: FIG. 9. Sdc1 ectodomain fragments and β4 dominant-negative mutant specific for Sdc1/α6β4/HER2 block MCF10A mammary epithelial cell migration. Haptotaxis of MCF10A human mammary epithelial cells induced by clustering the α6β4 integrin in a scratch wound assay is used to test the efficacy of inhibitors that target the Sdc1 mechanism. Cells are incubated either with entire recombinant syndecan ectodomains (Sdc1 ectodomain (S1ED) or Sdc4 ectodomain (S4ED) as a control), or an active fragment of mouse S1ED (S1ED^200-252) containing the inhibitory site.
HaCat or MCF10A cells were grown to confluence on 48 well-plates were starved for 6 hr by serum deprivation followed by introduction of a scratch wound in the monolayer using 200 μl pipette tip. Cells were cultured an additional 18 hr in DMEM containing mAb 3E1 (10 μg/ml) and goat anti-mouse IgG (50 μg/ml), EGF (10 ng/ml) or HGF (20 ng/ml) to cause cell migration in the presence or absence of inhibitors. Images were acquired using a PlanApo 20 (0.75 numerical aperture) objective and a Photometrics CoolSnap ES camera on a Nikon Eclipse TE2000U microscopy system and wound closure quantified.
The inventor used this assay to further truncate the S1ED recombinant proteins in order to find the smallest peptide that retains full inhibitory activity (e.g., SSTNHER2). The inventor tested mouse and human S1ED and find that they compete equally. […]

SSTNHER2: synthetic peptide of human Sdc1 ectodomain amino acids 210-240 (SEQ ID NO:3), inhibits Sdc1 coupling of HER2 to α6β4 integrin (DFTFETSGENTAVVAVEPDRRNQSPVDQGAT; listed as Homo sapiens)
total cell number, combination with the other SSTN peptides ([1]; each peptide at 10 μM): enhanced
proliferation and survival ([1]; single peptide 3-30 μM): target the proliferation and survival
proliferation and survival ([2]; MDA-MB-468 (triple-negative), single peptide 3-30 μM): no effect
total cell number, combination with the other SSTN peptides ([2]; MDA-MB-468, each peptide at 10 μM): not affected
growth or survival [3]: no effect
total cell number, combination with the other SSTN peptides ([4]; each peptide at 10 μM): enhanced
proliferation and survival ([4]; single peptide 3-30 μM): target the proliferation and survival
total cell number, combination with the other SSTN peptides ([5]; each peptide at 10 μM): enhanced
proliferation and survival ([5]; single peptide 3-30 μM): target the proliferation and survival
haptotaxis (migration to close a scratch wound) [6]: blocks haptotaxis
